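Interpolation was linear, between the two tested concentrations surrounding the appropriate level; five concentrations were tested over 48 hours in 96-well plates. The concentration for 50% growth inhibition is given as GI50.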 Activity calls are given as the source filed them. Cut-off read from the data, not from the text of the source: active = GI50 up to about 1.1 µM and inactive = higher.
How the values were obtained:
Assay in all cases: inhibition of tumour cell growth, NCI panel, 48 h
A549 = test system: A549
DU-145 = test system: DU-145
HOP-62 = test system: HOP-62
HT-29 = test system: HT-29
IGROV-1 = test system: IGROV-1
MCF7 = test system: MCF7
MDA-MB-231 = test system: MDA-MB-231
NCI-H522 = test system: NCI-H522
NCI/ADR-RES = test system: NCI/ADR-RES
OVCAR-5 = test system: OVCAR-5
OVCAR-8 = test system: OVCAR-8
SF-539 = test system: SF-539
SK-MEL-28 = test system: SK-MEL-28
SK-MEL-5 = test system: SK-MEL-5
SNB-19 = test system: SNB-19
SR = test system: SR
SW-620 = test system: SW-620
U-251 = test system: U-251
UACC-257 = test system: UACC-257
SK-OV-3 = test system: SK-OV-3

Measured: GI50

CN1C(=O)c2ccccc2NC(=O)C12O[C@@H]2c1ccccc1 (stereo partly specified)
inactive: A549 > 100 µM | DU-145 > 100 µM | HOP-62 > 100 µM | HT-29 > 100 µM | IGROV-1 > 100 µM | MCF7 > 100 µM | MDA-MB-231 67.6 µM | NCI-H522 > 100 µM | NCI/ADR-RES > 100 µM | OVCAR-5 > 100 µM | OVCAR-8 > 100 µM | SF-539 > 100 µM | SK-MEL-28 > 100 µM | SK-MEL-5 > 100 µM | SNB-19 > 10 µM | SR > 100 µM | SW-620 > 100 µM | U-251 > 100 µM | UACC-257 > 100 µM

C=CCc1cccc2cc(C(=O)Nc3nc(C45CC6CC(CC(C6)C4)C5)cs3)c(=O)oc12
inactive: A549 49.9 µM | DU-145 44.6 µM | HOP-62 17.8 µM | HT-29 49.8 µM | IGROV-1 27.8 µM | MCF7 > 100 µM | MDA-MB-231 23.4 µM | NCI-H522 49.7 µM | NCI/ADR-RES 27.2 µM | OVCAR-5 > 100 µM | OVCAR-8 85.9 µM | SF-539 > 100 µM | SK-MEL-28 61.8 µM | SK-MEL-5 40.8 µM | SNB-19 26.1 µM | SR 28.9 µM | SW-620 31.7 µM | U-251 20.2 µM | UACC-257 32.8 µM

COCCN(C(=O)c1ccccc1)C1CCC2(SCCS2)c2[nH]c3ccccc3c21 (stereo unspecified)
inactive: A549 26.2 µM | DU-145 > 100 µM | HOP-62 > 100 µM | HT-29 49.4 µM | IGROV-1 34.5 µM | MCF7 37.5 µM | MDA-MB-231 57.7 µM | NCI-H522 23.3 µM | NCI/ADR-RES 30.2 µM | OVCAR-5 > 100 µM | OVCAR-8 25.6 µM | SF-539 85.5 µM | SK-MEL-28 74 µM | SK-MEL-5 22.9 µM | SNB-19 89.5 µM | SR 29.7 µM | SW-620 33.3 µM | U-251 46.9 µM | UACC-257 59.2 µM

COC(=O)[C@H](Cc1ccccc1)NC(=O)[C@H](Cc1ccccc1)NC(=O)[C@@H]1CCCN1C(=O)N[C@H]1C2C=CC(C2)C1C(=O)N1CCC[C@H]1C(=O)N[C@@H](C)C(=O)N[C@H](C(=O)OC)C(C)C (stereo partly specified)
inactive: A549 > 100 µM | DU-145 > 100 µM | HOP-62 > 100 µM | HT-29 > 100 µM | IGROV-1 38 µM | MCF7 56.9 µM | MDA-MB-231 46.5 µM | NCI-H522 56.5 µM | NCI/ADR-RES > 100 µM | OVCAR-5 > 100 µM | OVCAR-8 > 100 µM | SK-MEL-28 > 100 µM | SK-MEL-5 > 100 µM | SK-OV-3 > 100 µM | SNB-19 > 100 µM | SR 49.7 µM | SW-620 69.3 µM | U-251 70.3 µM | UACC-257 > 100 µM
